Counter-ions that a name gives are not always drawn. Like-named read-outs stand apart in the source and are kept apart here.
Key:
Assay type in all cases: cell-based
S1P5 = target: T1, S1P5 (Homo sapiens, UniProt Q9H228); test: Specificity over other S1P receptors: S1P5-bla TANGO U2OS; conditions: without Forskolin, read-out: S1P5 agonist value (EC50)
T1 construct: Tango fusion (C); host or cells: U2OS (Tango, bla reporter)
Method: (§1) Cells were seeded into 384-well black wall/clear bottom plates at 10^4 cells/well/19.5 μl assay media (DMEM-phenol free, 0.5% charcoal/dextran stripped serum, 2 mM glutamine, 0.1 mM NEAA, 1 mM Na-Pyruvate, 25 mM Hepes) and incubated for 18 hrs at 37° C. in 5% CO2. Dose response curves (10-point) were generated in 10 mM Hepes, 0.1% Pluronic F127, in the presence of Forskolin. Cells were treated with 0.5 μl compound in the presence of 2 μM Forskolin for 4 hrs at 37° C. The FRET-based β-lactamase fluorescent substrate (LiveBLAzer™-FRET B/G Loading Kit CC4-AM; Invitrogen) was prepared according to manufacturer's directions, and incubated with cells for 2 hrs at room temperature. Plates were read at Ex:410/Em:458 and Ex:410/Em:522, and the response ratio determined. Data was analyzed by non-linear regression to determine the EC50 for inhibition of Forskolin induced cAMP.
(§2) To assess compound specificity on other S1P receptors the following cell lines were used: S1P2 CRE-bla CHOK1, S1P3-Gα15 NFAT-bla HEK293T (Invitrogen), S1P4-bla TANGO U2OS (Invitrogen), S1P5-bla TANGO U2OS (Invitrogen). The same assay set up for S1P1 was used but without Forskolin. S1P4 and S1P5 assays were performed in FreeStyle Expression medium (Invitrogen). S1P5 cells were incubated for 48 hrs in prior to treatment with compound.

S1P1/EDG1 = S1P1/EDG1 (Homo sapiens, UniProt P21453); test: S1P1 CRE-bla CHOK1 reporter assay (inhibition of Forskolin induced cAMP); conditions: S1P1 CRE-bla CHOK1 cells, 2 μM Forskolin
Chain of S1P1/EDG1 (P21453 whole entry): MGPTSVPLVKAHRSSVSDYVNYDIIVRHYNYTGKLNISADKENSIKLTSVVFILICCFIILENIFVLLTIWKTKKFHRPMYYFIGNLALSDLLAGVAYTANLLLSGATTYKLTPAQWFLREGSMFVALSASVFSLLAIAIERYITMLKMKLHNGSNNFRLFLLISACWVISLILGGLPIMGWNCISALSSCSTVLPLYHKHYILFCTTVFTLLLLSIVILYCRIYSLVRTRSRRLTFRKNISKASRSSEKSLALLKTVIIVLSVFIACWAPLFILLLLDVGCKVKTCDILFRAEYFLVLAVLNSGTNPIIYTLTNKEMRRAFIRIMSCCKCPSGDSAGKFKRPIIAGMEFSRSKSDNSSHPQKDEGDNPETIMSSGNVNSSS
From the text: A mammalian expression plasmid containing S1P1/EDG1 cloned into pcDNA3.1 was purchased from Missouri S&T cDNA Resource Centre. The nucleotide and amino acid sequence of human S1P1/EDG1 are published in Hla and Maciag (J Biol Chem, 265(1990), 9308-9313). S1P1/pcDNA3.1 was transfected into the CRE-bla CHO K1 (Invitrogen) cell line, and stable single cell clones were selected using standard techniques. Expression of functional S1P1/EDG1 receptor was confirmed by cell surface FACS with a S1P1 antibody (R&D Systems, clone 218713) and S1P-mediated inhibition of Forskolin induced cAMP.
as §1

S1P2 = target: T2, S1P2 (Homo sapiens, UniProt O95136); test: Specificity over other S1P receptors: S1P2 CRE-bla CHOK1; conditions: S1P2 CRE-bla CHOK1, without Forskolin; read-out: S1P2 agonist value (EC50)
T2 construct: expressed in transfected cells; host or cells: CRE-bla CHOK1
T2 sequence (O95136 whole entry, species assumed): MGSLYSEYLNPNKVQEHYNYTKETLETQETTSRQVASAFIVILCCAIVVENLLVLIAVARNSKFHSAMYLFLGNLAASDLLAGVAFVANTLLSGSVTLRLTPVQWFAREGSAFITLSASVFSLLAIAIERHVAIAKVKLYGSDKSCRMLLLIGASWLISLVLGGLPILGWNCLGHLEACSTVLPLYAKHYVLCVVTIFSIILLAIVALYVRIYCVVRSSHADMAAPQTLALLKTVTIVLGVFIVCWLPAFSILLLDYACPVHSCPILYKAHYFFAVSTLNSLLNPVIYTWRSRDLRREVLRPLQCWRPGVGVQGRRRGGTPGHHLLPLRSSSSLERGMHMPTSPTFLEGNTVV
Method: as §1, §2

S1P3 = target: T3, S1P3 (Homo sapiens, UniProt Q99500); test: Specificity over other S1P receptors: S1P3-Gα15 NFAT-bla HEK293T; conditions: without Forskolin, read-out: S1P3 agonist value (EC50)
T3 construct: host or cells: NFAT-bla HEK293T
T3 sequence (Q99500 whole entry): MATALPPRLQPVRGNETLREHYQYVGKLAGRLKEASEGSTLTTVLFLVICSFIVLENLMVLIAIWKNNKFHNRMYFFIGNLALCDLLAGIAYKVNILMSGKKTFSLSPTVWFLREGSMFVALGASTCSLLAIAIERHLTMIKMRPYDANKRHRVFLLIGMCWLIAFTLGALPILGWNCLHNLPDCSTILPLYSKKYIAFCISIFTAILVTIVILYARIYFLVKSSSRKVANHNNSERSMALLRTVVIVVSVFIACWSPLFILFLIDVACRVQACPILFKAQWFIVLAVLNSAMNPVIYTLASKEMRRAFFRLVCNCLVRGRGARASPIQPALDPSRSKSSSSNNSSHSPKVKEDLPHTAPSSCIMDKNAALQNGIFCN
Method: as §1, §2

S1P4 = target: T4, S1P4 (Homo sapiens, UniProt O95977); test: Specificity over other S1P receptors: S1P4-bla TANGO U2OS; conditions: without Forskolin, read-out: S1P4 agonist value (EC50)
T4 construct: Tango fusion (C); host or cells: U2OS (Tango, bla reporter)
T4 sequence (O95977 1-384): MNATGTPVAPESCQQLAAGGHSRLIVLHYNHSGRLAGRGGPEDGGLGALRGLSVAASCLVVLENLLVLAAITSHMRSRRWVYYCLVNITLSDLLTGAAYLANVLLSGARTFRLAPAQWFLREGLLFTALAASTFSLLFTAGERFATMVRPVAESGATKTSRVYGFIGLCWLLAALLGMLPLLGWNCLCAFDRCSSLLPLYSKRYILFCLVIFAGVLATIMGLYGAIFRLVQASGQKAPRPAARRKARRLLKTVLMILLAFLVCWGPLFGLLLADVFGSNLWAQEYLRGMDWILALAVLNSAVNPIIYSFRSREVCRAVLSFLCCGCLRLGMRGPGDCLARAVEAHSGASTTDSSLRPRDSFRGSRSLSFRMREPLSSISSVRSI
Method: as §1, §2

[1] = read-out: S1P1 agonist value (EC50)
[2] = agonist activity range, read-out: S1P1 ACTIVITY

T1 sequence (Q9H228 whole entry, the tested form may be a part): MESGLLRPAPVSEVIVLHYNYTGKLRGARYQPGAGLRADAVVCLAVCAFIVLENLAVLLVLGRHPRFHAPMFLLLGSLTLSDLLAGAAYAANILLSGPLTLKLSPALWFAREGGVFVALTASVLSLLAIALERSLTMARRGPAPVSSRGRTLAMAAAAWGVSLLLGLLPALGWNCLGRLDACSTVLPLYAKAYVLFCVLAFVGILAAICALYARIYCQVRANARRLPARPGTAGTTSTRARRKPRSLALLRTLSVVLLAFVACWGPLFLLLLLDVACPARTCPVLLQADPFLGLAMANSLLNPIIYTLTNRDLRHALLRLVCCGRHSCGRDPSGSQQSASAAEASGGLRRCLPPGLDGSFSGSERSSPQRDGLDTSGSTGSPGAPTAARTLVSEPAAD

| SMILES | EC50 (S1P1/EDG1; [2]) [nM] | further results |
| --- | --- | --- |
| CC(C)Oc1ccc(-c2nc(-c3cccc4c3CCC[C@@H]4NC(=O)N3CC(O)C3)no2)cc1C#N [Compound 8, (S)-N-(5-(5-(3-cyano-4-isopropoxyphenyl)-1,2,4-oxadiazol-3-yl)-1,2,3,4-tetrahydronaphthalen-1-yl)-3-hydroxyazetidine-1-carboxamide] | 0.05 to 0.5 | EC50 (S1P5): 109 nM; EC50 (S1P1/EDG1; [1]): 0.143 nM; EC50 (S1P2): > 10000 nM; EC50 (S1P3): > 10000 nM; EC50 (S1P4): > 10000 nM |
| CC(C)Oc1ccc(-c2nc(-c3cccc4c3CCC[C@H]4NC(=O)N3CC[C@H](O)C3)no2)cc1C#N [Compound 13] | 0.05 to 0.5 | EC50 (S1P5): 77 nM; EC50 (S1P1/EDG1; [1]): 0.1 nM; EC50 (S1P2): > 10000 nM; EC50 (S1P3): > 10000 nM; EC50 (S1P4): > 10000 nM |
| CC(C)Oc1ccc(-c2nc(-c3cccc4c3CCC[C@@H]4NS(=O)(=O)CCN(C)C)no2)cc1C#N [Compound 45, (S)-N-(5-(5-(3-cyano-4-isopropoxyphenyl)-1,2,4-oxadiazol-3-yl)-1,2,3,4-tetrahydronaphthalen-1-yl)-2-(dimethylamino) ethanesulfonamide] | 0.5 to 5 |  |
| CC(C)Oc1ccc(-c2nc(-c3cccc4c3CCC[C@@H]4NS(=O)(=O)CCN3CC[C@@H](O)C3)no2)cc1C#N [Compound 46] | 0.5 to 5 |  |
| CC(C)Oc1ccc(-c2nc(-c3cccc4c3CCC[C@H]4NS(=O)(=O)CCN3CC[C@@H](O)C3)no2)cc1C#N [Compound 47] | 0.05 to 0.5 |  |
| CC(C)Oc1ccc(-c2nc(-c3cccc4c3CCC[C@H]4NCCS(C)(=O)=O)no2)cc1C#N [Compound 48, (R)-2-isopropoxy-5-(3-(5-((2-(methylsulfonyl)ethyl)amino)-5,6,7,8-tetrahydronaphthalen-1-yl)-1,2,4-oxadiazol-5-yl)benzonitrile] | 0.05 to 0.5 |  |
| CC(C)Oc1ccc(-c2nc(-c3cccc4c3CCC[C@H]4NCCO)no2)cc1C#N [Compound 50, (R)-5-(3-(5-((2-hydroxyethyl)amino)-5,6,7,8-tetrahydronaphthalen-1-yl)-1,2,4-oxadiazol-5-yl)-2-isopropoxybenzonitrile] | 0.05 to 0.5 |  |
| CC(C)Oc1ccc(-c2nc(-c3cccc4c3CCC[C@@H]4NCCO)no2)cc1C#N [Compound 51, (S)-5-(3-(5-((2-hydroxyethyl)amino)-5,6,7,8-tetrahydronaphthalen-1-yl)-1,2,4-oxadiazol-5-yl)-2-isopropoxybenzonitrile] | 0.05 to 0.5 |  |
| CC(C)Oc1ccc(-c2nc(-c3cccc4c3CCC[C@H]4NCC(=O)O)no2)cc1C#N [Compound 52, (R)-2-((5-(5-(3-cyano-4-isopropoxyphenyl)-1,2,4-oxadiazol-3-yl)-1,2,3,4-tetrahydronaphthalen-1-yl)amino) acetic acid] | < 0.05 |  |
| CC(C)Oc1ccc(-c2nc(-c3cccc4c3CCC[C@@H]4NCC(=O)O)no2)cc1C#N [Compound 53, (S)-2-((5-(5-(3-cyano-4-isopropoxyphenyl)-1,2,4-oxadiazol-3-yl)-1,2,3,4-tetrahydronaphthalen-1-yl)amino)acetic acid] | 0.05 to 0.5 |  |
| CC(C)Oc1ccc(-c2nc(-c3cccc4c3CCC[C@H]4NCC(=O)N3CCCC3)no2)cc1C#N [Compound 54, (R)-2-isopropoxy-5-(3-(5-((2-oxo-2-(pyrrolidin-1-yl)ethyl)amino)-5,6,7,8-tetrahydronaphthalen-1-yl)-1,2,4-oxadiazol-5-yl)benzonitrile] | 0.5 to 5 |  |
| CC(C)Oc1ccc(-c2nc(-c3cccc4c3CCC[C@@H]4NCC(=O)N3CCCC3)no2)cc1C#N [Compound 55, (S)-2-isopropoxy-5-(3-(5-((2-oxo-2-(pyrrolidin-1-yl)ethyl)amino)-5,6,7,8-tetrahydronaphthalen-1-yl)-1,2,4-oxadiazol-5-yl)benzonitrile] | 0.05 to 0.5 |  |
| CC(C)Oc1ccc(-c2ncc(-c3cccc4c3CCC4O)o2)cc1C#N (stereo not shown) [Compound 56, 5-(5-(1-hydroxy-2,3-dihydro-1H-inden-4-yl)oxazol-2-yl)-2-isopropoxybenzonitrile] | 0.5 to 5 |  |
| CC(C)Oc1ccc(-c2ncc(-c3cccc4c3CCC4NCCO)o2)cc1C#N (stereo not shown) [Compound 57, 5-(5-(1-(2-hydroxyethylamino)-2,3-dihydro-1H-inden-4-yl)oxazol-2-yl)-2-isopropoxybenzonitrile] | 0.5 to 5 |  |
| CC(C)Oc1ccc(-c2ncc(-c3cccc4c3CCC4N[C@H](C)CO)o2)cc1C#N (stereo partly drawn) [Compound 58, 5-(5-(1-((R)-1-hydroxypropan-2-ylamino)-2,3-dihydro-1H-inden-4-yl)oxazol-2-yl)-2-isopropoxybenzonitrile] | > 5 |  |
| CCOc1ccc(Cc2nc(-c3cccc4c3CCC4O)no2)cc1OCC (stereo not shown) [Compound 60, 4-(5-(3,4-diethoxybenzyl)-1,2,4-oxadiazol-3-yl)-2,3-dihydro-1H-inden-1-ol] | > 5 |  |
| CCOc1ccc(Cc2nc(-c3cccc4c3CCC4NCCO)no2)cc1OCC (stereo not shown) [Compound 61, 2-((4-(5-(3,4-diethoxybenzyl)-1,2,4-oxadiazol-3-yl)-2,3-dihydro-1H-inden-1-yl)amino)ethanol] | > 5 |  |
| CCOc1ccc(Cc2nc(-c3cccc4c3CCC4N[C@H](C)CO)no2)cc1OCC (stereo partly shown) [Compound 62] | > 5 |  |
| CCOc1ccc(Cc2nc(-c3cccc4c3CCC4NCCS(C)(=O)=O)no2)cc1OCC (stereo not shown) [Compound 63, 4-(5-(3,4-diethoxybenzyl)-1,2,4-oxadiazol-3-yl)-N-(2-(methylsulfonyl)ethyl)-2,3-dihydro-1H-inden-1-amine] | > 5 |  |
| CCOc1ccc(Cc2nc(-c3cccc4c3CCC4NCCS(=O)(=O)NC)no2)cc1OCC (stereo not shown) [Compound 64, 2-((4-(5-(3,4-diethoxybenzyl)-1,2,4-oxadiazol-3-yl)-2,3-dihydro-1H-inden-1-yl)amino)-N-methylethanesulfonamide] | > 5 |  |
| CCOc1ccc(Cc2nc(-c3cccc4c3CC[C@H]4N)no2)cc1OCC [Compound 65, (R)-4-(5-(3,4-diethoxybenzyl)-1,2,4-oxadiazol-3-yl)-2,3-dihydro-1H-inden-1-amine hydrochloride] | > 5 |  |
| CCOc1ccc(Cc2nc(-c3cccc4c3CC[C@@H]4NCC(=O)N(C)C)no2)cc1OCC [Compound 66, (S)-2-((4-(5-(3,4-diethoxybenzyl)-1,2,4-oxadiazol-3-yl)-2,3-dihydro-1H-inden-1-yl)amino)-N,N-dimethylacetamide] | > 5 |  |
| OCCN[C@@H]1CCc2c(-c3noc(-c4cc(-c5ccccc5)c(C(F)(F)F)s4)n3)cccc21 [Compound 67, (R)-2-(4-(5-(4-phenyl-5-(trifluoromethyl)thiophen-2-yl)-1,2,4-oxadiazol-3-yl)-2,3-dihydro-1H-inden-1-ylamino)ethanol] | > 5 |  |
| CC(C)Oc1ccc(-c2nc(-c3ccc4[nH]ccc4c3)no2)cc1C#N [Compound 68, 5-(3-(1H-indol-5-yl)-1,2,4-oxadiazol-5-yl)-2-isopropoxybenzonitrile] | 0.5 to 5 |  |
| CC(C)Oc1ccc(-c2nc(-c3ccc4occc4c3)no2)cc1C#N [Compound 69, 5-(3-(benzofuran-5-yl)-1,2,4-oxadiazol-5-yl)-2-isopropoxybenzonitrile] | 0.5 to 5 |  |
| Cc1cnccc1-c1noc(-c2ccc(OC(C)C)c(C#N)c2)n1 [Compound 70, 2-isopropoxy-5-(3-(3-methylpyridin-4-yl)-1,2,4-oxadiazol-5-yl)benzonitrile] | < 0.05 |  |
| CC(C)Oc1ccc(-c2nc(-c3ccnc(CO)c3)no2)cc1C#N [Compound 71, 5-(3-(2-(hydroxymethyl)pyridin-4-yl)-1,2,4-oxadiazol-5-yl)-2-isopropoxy-benzonitrile] | 0.05 to 0.5 |  |

— US9394264B2 (Receptos, Inc., priority 2009, dated 2016)
